In patent US20230107216A1, “PANTETHEINE DERIVATIVES AND USES THEREOF” (Comet Therapeutics, Inc., priority 2018, published 2023):

Tests used:
[1] = test system: tyrosine hydroxylase positive mesencephalic neurons injured by MPP+; assay: Neuroprotective effect on damage induced by MPP+ on culture of mesencephalic neurons; format: cell-based; details: Rattus norvegicus, Neuron, MPP+ 50 μM, 48h, read-out: % reversion of TH positive neurons (MPTP-mediated degradation of dopaminergic neurons)
Text: A female Wistar rat (Janvier; France) of 15 days gestation was terminated by cervical dislocation, the fetuses were removed from the uterus and their brains were harvested and placed in ice-cold medium (Leibovitz's L15 medium, Gibco). Only ventral mesencephalic flexure was used for the cell preparations. The midbrain was dissociated by trypsinization. The reaction was stopped, and the suspension was triturated and centrifuged. The pellet of dissociated cells was resuspended in chemically defined medium consisted of Neurobasal (Gibco), containing B27 supplement (Gibco) and L-glutamine (Gibco), 10 ng/ml (BDNF; Pepro Tech, France) and 1 ng/ml (GDNF; Pepro Tech).
Viable primary rat embryo mesencephalic cells were counted and seeded on 96-multi-wells plate precoated with poly-L-lysine. Cells were maintained in a humidified incubator at 37° C. in 5% CO2-95% air atmosphere and medium changed on day 2. On day 6, the culture medium was removed and replaced by new media without neurotrophic factors containing the compounds of the present disclosure (50-10 μM) or vehicle (0.1% DMSO). After 1h exposure, injury of mesencephalon neuronal cultures was induced by MPP^+ (50 μM) for further 48h. A mixture of the growth factors GDNF (1 ng/ml) and BDNF (10 ng/ml) were used as reference compound. On day 8, the tyrosine hydroxylase positive neurons were evaluated. Cultures were fixed 30 min at 4° C. with paraformaldehyde in PBS (4%, Thermo Scientific, 28908). After, cells were permeabilized with 0.1% Triton X100 for 30 min, saturated with PBS containing 3% of BSA (bovine serum albumin) and incubated 2h with anti-tyrosine hydroxylase antibody (Sigma, 1:10000; clone TH-2) at 1/10000 in PBS containing 0.5% of BSA. Cells were washed three times with PBS containing 0.5% of BSA and incubated 1h with goat anti mouse antibody coupled with AF488 (Invitrogen A11001) diluted at 1/1000 in PBS containing 0.5% of BSA. Finally, nuclei were stained with DAPI at 1/1000 in PBS containing 0.5% of BSA. After rinsing with PBS, the plate was visualized and examined with Cell Insight HCS (Thermo Scientific) to determine the number of tyrosine hydroxylase positive cells per well.
The results for each well were expressed as a percentage by setting the density of tyrosine hydroxylase positive cells under control conditions to 100%. Then the result for each condition was reported as mean±SEM from 4 independent cultures.
A global analysis of the data was performed using a one-way analysis of variance (ANOVA), followed by Fisher's Protected Least Significant Difference when applicable. The level of significance was set to p<0.05.

[2] = test system: primary fibroblasts GM00649, GM06225, GM00612, GM00444, GM03672; assay: MMP, ROS and ATP multiplex (ArrayScan); format: cell-based; details: Homo sapiens, Fibroblast; Leigh GM03672; procedure Example 838; 50 μM (table line r25); read-out: Decreased ROS by at least 10%

## CC(=O)OCC(C)(C)[C@@H](O)C(=O)NCCC(=O)NCCSC(=O)CC(=O)CCC(=O)O [Compound 140, 6-[(2-[3-[(2R)-4-(acetyloxy)-2-hydroxy-3,3-dimethylbutanamido]propanamido]ethyl)sulfanyl]-4,6-dioxohexanoic acid]
[1]
  inhibition at 10 µM: ≥ 60%
[2]
  inhibition at 50 µM: ≥ 10%
